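Assay format: 96-well plates, 48-hour exposure. The concentration for full growth arrest is given as TGI.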

Among the test systems are A498 renal; CCRF-CEM leukemia; HCC-2998 colon; LOX IMVI melanoma; MDA-MB-435; NCI-H522 lung; OVCAR-3 ovarian; SF-268 CNS; SK-OV-3 ovarian; SR leukemia.
Experiment in all cases: inhibition of tumour cell growth, NCI panel, 48 h

As to `C[C@@H](Cl)[C@H]1CCCN(Cc2ccc(Br)cc2)C1`, the TGI in the assay with A498 renal, in the assay on CCRF-CEM leukemia, in the assay with HCC-2998 colon, in the assay on LOX IMVI melanoma, with MDA-MB-435 and with NCI-H522 lung was over 12.5 µM each time. In addition, the TGI with OVCAR-3 ovarian, in the assay on SF-268 CNS, in the assay on SK-OV-3 ovarian and in the assay on SR leukemia was over 12.5 µM throughout.

In the case of `NNC1=N/C(=C\c2ccco2)C(Cl)=N1`, the TGI in the assay with A498 renal was over 100 µM; in the assay on CCRF-CEM leukemia, over 100 µM; with HCC-2998 colon, over 100 µM; in the assay with LOX IMVI melanoma, 70.8 µM; with MDA-MB-435, over 100 µM; in the assay on NCI-H522 lung, 92.2 µM. Also, the TGI with OVCAR-3 ovarian was over 100 µM; with SF-268 CNS, over 100 µM; in the assay on SK-OV-3 ovarian, over 100 µM; in the assay on SR leukemia, 72.1 µM.

For `C=C1c2cc3c(cc2CC12Cc1cc4c(cc1C2=O)CCC4)CCC3` (stereo not given), the TGI in the assay with A498 renal, with CCRF-CEM leukemia, in the assay with HCC-2998 colon, with LOX IMVI melanoma, in the assay with MDA-MB-435 and in the assay on NCI-H522 lung was over 100 µM throughout. In addition, the TGI in the assay with OVCAR-3 ovarian, with SF-268 CNS, with SK-OV-3 ovarian and in the assay with SR leukemia was over 100 µM throughout.

Turning to `COC(=O)CCc1cc(OC)c2c(c1)[C@H](C(=O)OC)[C@@H](c1ccc(O)c(OC)c1)O2`, the TGI was 74.5 µM in the assay with A498 renal; over 100 µM in the assay with CCRF-CEM leukemia; 50.5 µM in the assay on HCC-2998 colon; over 100 µM in the assay with LOX IMVI melanoma; 39.5 µM in the assay on MDA-MB-435; over 100 µM in the assay with NCI-H522 lung. Besides, the TGI in the assay on OVCAR-3 ovarian was over 100 µM; in the assay on SF-268 CNS it was over 100 µM; in the assay on SK-OV-3 ovarian, over 100 µM; in the assay on SR leukemia, 19.1 µM.

`CC(O)CCCOC(c1ccccc1)(c1ccccc1)c1ccccc1` (stereo not given): the TGI is 34.7 µM with A498 renal; over 67.2 µM in the assay with CCRF-CEM leukemia; 29.1 µM in the assay with HCC-2998 colon; 30.4 µM in the assay with LOX IMVI melanoma; 30.4 µM in the assay with MDA-MB-435; 26.8 µM with NCI-H522 lung. The TGI in the assay on OVCAR-3 ovarian was 27.3 µM; in the assay with SF-268 CNS, 29.8 µM; in the assay on SK-OV-3 ovarian, 30.8 µM; with SR leukemia, over 57.4 µM.

For `O=C(O)c1cc(-c2ccc3c(O)c(O)ccc3c2)ccc1O`, the TGI with A498 renal is over 75 µM; in the assay on CCRF-CEM leukemia it was 33.6 µM; in the assay with HCC-2998 colon, over 75 µM; in the assay with LOX IMVI melanoma, 34.9 µM; in the assay on MDA-MB-435, over 75 µM; in the assay with NCI-H522 lung it was over 75 µM. Further, the TGI in the assay with OVCAR-3 ovarian was over 75 µM; in the assay with SF-268 CNS, over 75 µM; with SK-OV-3 ovarian, over 75 µM; in the assay on SR leukemia, 42 µM.

Consider `COc1cc(-c2cc(=O)c3cc4c(=O)cc(-c5cc(OC)c(OC)c(OC)c5)oc4cc3o2)cc(OC)c1OC`, for which the TGI in the assay on A498 renal was 65.6 µM; with CCRF-CEM leukemia, over 100 µM; with HCC-2998 colon it was over 100 µM; with LOX IMVI melanoma it was over 100 µM; in the assay on MDA-MB-435 it was over 100 µM; in the assay on NCI-H522 lung, over 85.8 µM. Also, the TGI was over 100 µM in the assay with OVCAR-3 ovarian, over 94.7 µM with SF-268 CNS, 41.4 µM in the assay with SK-OV-3 ovarian and over 100 µM with SR leukemia.

For `CSc1c(C#N)c(N)n(-c2ccc(C)cc2)c(=O)c1C#N`, the TGI in the assay on A498 renal, with CCRF-CEM leukemia, in the assay with HCC-2998 colon, with LOX IMVI melanoma, with MDA-MB-435 and with NCI-H522 lung was over 100 µM each time. Also, the TGI with OVCAR-3 ovarian, in the assay with SF-268 CNS, in the assay on SK-OV-3 ovarian and with SR leukemia was over 100 µM each time.

In the case of `CCOC(CNCCC(=O)OC)OCC`, the TGI in the assay on A498 renal, in the assay on CCRF-CEM leukemia, in the assay on HCC-2998 colon, with LOX IMVI melanoma, in the assay on MDA-MB-435 and in the assay with NCI-H522 lung was over 10 µM throughout. Also, the TGI with OVCAR-3 ovarian, in the assay on SF-268 CNS, with SK-OV-3 ovarian and in the assay on SR leukemia was over 10 µM throughout.

`CCc1c[n+]([O-])c(C)cc1[N+](=O)[O-]`: the TGI with A498 renal was over 100 µM; in the assay on CCRF-CEM leukemia it was over 100 µM; with HCC-2998 colon, 40.5 µM; with LOX IMVI melanoma, over 100 µM; in the assay with MDA-MB-435, over 100 µM; in the assay with NCI-H522 lung it was over 100 µM. Further, the TGI in the assay on OVCAR-3 ovarian, in the assay with SF-268 CNS, in the assay on SK-OV-3 ovarian and with SR leukemia was over 100 µM throughout.

(Values after PubChem BioAssay (NCI).)
